Literature values in paper PMC4158421, “Screening-based discovery of Aspergillus fumigatus plant-type chitinase inhibitors” (Febs Letters, 2014).

Test system: A. fumigatus biofilm
Parameters: method as in PMID 23314962

In the case of `CC(=O)Nc1nnc(S(N)(=O)=O)s1` [acetazolamide], the “effect on A. fumigatus biofilm biomass” value is listed as “reduce A. fumigatus biofilm biomass”.
